Results on 23 compounds are retold here after patent US9708312B2, “Dihydropyrimidinoisoquinolinones and pharmaceutical compositions thereof for the treatment of inflammatory disorders (GPR84 antagonists)” (GALAPAGOS NV, priority 2012, dated 2017).

In this experiment the test system is human neutrophils. Put plainly: Human neutrophil migration assay (embelin-induced chemotaxis). It is filed as cell-based. The note with it: for IC50: Neutrophil, neutrophils from human buffy coats, embelin at EC80. On the procedure:
2.1. Human Neutrophil Migration Assay
The effect of agonists or antagonists for GPR84 can therefore be assayed in a neutrophil migration test. In the neutrophil migration assay, neutrophils, freshly isolated from buffy coats from human volunteers, are treated with a compound for 30 min Subsequently, the neutrophils are transferred to the upper wells of a Corning HTS transwell 96 permeable support system, of which the lower wells are filled with a embelin solution at EC80 (concentration which gives 80% of the activity of GPR84). After 1 h of incubation, migration of the neutrophils towards embelin in the lower compartment can be quantified by measuring the ATP-content of the lower wells using the ATPlite luminescence ATP detection assay system (Perkin Elmer, Cat. No.: 436110).
2.1.1 Isolation of Neutrophils from Human Buffy Coat
A human buffy coat is diluted with an equal volume of ice cold DPBS. 20 mL of the diluted buffy coat is gently mixed with 4 mL of ACD buffer (140 mM citric acid, 200 mM sodium citrate and 220 mM dextrose). Then, 12 mL of the 6% dextran/0.9% NaCl solution (15 g dextran T2000 and 2.25 g NaCl dissolved in 250 mL H2O) is added to the mixture and the samples are inverted gently up to 20 times. The total volume was transferred to a new recipient and incubated at room temperature for 1 h for complete separation of the two phases to occur. The yellowish supernatant is then transferred to a clean centrifugation tube and centrifuged for 12 min at 1300 rpm and 4° C. After centrifugation, the supernatant is discarded and the remaining cell pellet is rapidly resuspended in 12 mL of ice-cold H2O for red blood cell lysis to occur. After 20 seconds, 4 mL of ice-cold 0.6 M KCl is added. Samples are mixed carefully and centrifuged for 6 min at 1300 rpm, 4° C. The supernatant is discarded and the red blood cell lysis procedure is repeated one more time. Subsequently, the cell pellet is resuspended in 4 mL of DPBS and layered over 5 mL of Lymphoprep (Nycomed Pharma, Cat. No.: 1114545) in a 15 mL centrifuge tube. After centrifugation for 12 min at 1300 rpm, 4° C., the supernatant is removed and the cell pellet, containing the neutrophils, is resuspended in 25 mL chemotaxis buffer (RPMI 1640 medium, supplemented with 10 mM HEPES; freshly made for each experiment)
A cell suspension of 8.9×10^6 cells per milliliter is prepared. 20 μL of compound solution in chemotaxis buffer is added to 180 μL cell suspension. The mixture is incubated at 37° C. for 30 min with intermediate resuspension of the cells after 15 min Following this, 70 μL cell suspension is transferred to the upper compartment of a Corning HTS transwell 96 permeable support system with 5.0 μm pore size polycarbonate membrane (Corning, Cat. No.: 3387). The receiver well of the transwell system is then filled with 200 μL chemotaxis buffer containing compound and chemotactic agent (embelin). After incubation at 37° C. in 5% CO2 for 1 h, the upper plate of the transwell system is removed and the cell suspension in the receiver plate is transferred to a 96-well V-bottom plate. 50 μL of DPBS is added to the receiver plate to prevent remaining cells from drying out. The V-bottom plate is centrifuged for 6 min at 1500 rpm. The supernatant is removed and the cells are resuspended in 50 μL DPBS. The cells are then transferred back to the receiver plate of the transwell system. After this, 100 μL ATPlite solution (Perkin Elmer, Cat. No: 436110) was added to the cells. The plate is incubated for 10 min in the dark, while shaking. […] of cell lysate is then transferred to a white 96-well plate and luminescence is measured. The detected luminescent signal is considered as linearely related to the number of cells having migrated from the upper well to the receiver well.

As for `c1ccc2c(Cc3c[nH]c4ccccc34)c[nH]c2c1` [3,3′ di indolylmethane, reference compound], the “neutrophil chemotaxis induced by GPR84 agonists” value is “induce neutrophil chemotaxis”.

In general, IC50 refers to the concentration at which inhibition is half-maximal. A high value points to lower potency. Compound `O=c1nc(OCC2CCCO2)cc2n1CCc1cc(OCCOc3ccccc3)ccc1-2` (centres unmarked) [compound 15, 9-(2-phenoxy-ethoxy)-2-(tetrahydro-furan-2-ylmethoxy)-6,7-dihydro-pyrimido[6,1-a]isoquinolin-4-one] yielded a half-inhibitory concentration (IC50) of 0.01 to 100 nM.

`O=c1nc(OCC2CCCO2)cc2n1CCc1cc(OCC3COc4ccccc4O3)ccc1-2` (centres unmarked) [compound 18, 9-(2,3-dihydro-benzo[1,4]dioxin-2-ylmethoxy)-2-(tetrahydro-furan-2-ylmethoxy)-6,7-dihydro-pyrimido[6,1-a]isoquinolin-4-one] registered an IC50 of 0.01 to 100 nM.

`O=c1nc(OCC2CCCO2)cc2n1CCc1cc(OCc3cccc([N+](=O)[O-])c3)ccc1-2` (centres unmarked) [compound 32, 9-(3-nitro-benzyloxy)-2-(tetrahydro-furan-2-ylmethoxy)-6,7-dihydro-pyrimido[6,1-a]isoquinolin-4-one] showed an IC50 of 0.01 to 100 nM.

`O=c1nc(OCC2CCCO2)cc2n1CCc1cc(OCc3cccc(-c4cncnc4)n3)ccc1-2` (centres unmarked) [compound 57, 9-(6-pyrimidin-5-yl-pyridin-2-ylmethoxy)-2-(tetrahydro-furan-2-ylmethoxy)-6,7-dihydro-pyrimido[6,1-a]isoquinolin-4-one] came in with an IC50 of 100 to 500 nM.

For the compound `O=c1nc(OCC2COc3ccccc3O2)cc2n1CCc1cc(OCc3nnn[nH]3)ccc1-2` (centres unmarked) [compound 76, 2-(2,3-dihydro-benzo[1,4]dioxin-2-ylmethoxy)-9-(1H-tetrazol-5-ylmethoxy)-6,7-dihydro-pyrimido[6,1-a]isoquinolin-4-one], the 50% inhibitory concentration (IC50) fell in the range of 0.01 to 100 nM.

`O=c1nc(OCC2COc3ncccc3O2)cc2n1CCc1cc(OCc3ncco3)ccc1-2` (centres unmarked) [compound 86, 2-(2,3-dihydro-[1,4]dioxino[2,3-b]pyridin-2-ylmethoxy)-9-(oxazol-2-ylmethoxy)-6,7-dihydro-pyrimido[6,1-a]isoquinolin-4-one] returned an IC50 of 0.01 to 100 nM.

Consider `N#CCOc1ccc2c(c1)CCn1c-2cc(OCC2COc3ncccc3O2)nc1=O` (centres unmarked) [compound 89, [2-(2,3-dihydro-[1,4]dioxino[2,3-b]pyridin-2-ylmethoxy)-4-oxo-6,7-dihydro-4H-pyrimido[6,1-a]isoquinolin-9-yloxy]-acetonitrile], for which the IC50 fell in the range of 0.01 to 100 nM.

In turn, `O=c1nc(OCC2COc3ncccc3O2)cc2n1CCc1cc(OCc3ccccn3)ccc1-2` (centres unmarked) [compound 91, 2-(2,3-dihydro-[1,4]dioxino[2,3-b]pyridin-2-ylmethoxy)-9-(pyridin-2-ylmethoxy)-6,7-dihydro-pyrimido[6,1-a]isoquinolin-4-one] yielded an IC50 of 0.01 to 100 nM.

On to `O=c1nc(OCC2COc3ncccc3O2)cc2n1CCc1cc(OCc3nnn[nH]3)ccc1-2` (centres unmarked) [compound 93, 2-(2,3-dihydro-[1,4]dioxino[2,3-b]pyridin-2-ylmethoxy)-9-(1H-tetrazol-5-ylmethoxy)-6,7-dihydro-pyrimido[6,1-a]isoquinolin-4-one], for which the IC50 was in the range of 100 to 500 nM.

`CC(C)(O)C#Cc1ccc2c(c1)CCn1c-2cc(OCC2COc3ncccc3O2)nc1=O` (centres unmarked) [compound 136, 2-(2,3-dihydro-[1,4]dioxino[2,3-b]pyridin-2-ylmethoxy)-9-(3-hydroxy-3-methyl-but-1-ynyl)-6,7-dihydro-pyrimido[6,1-a]isoquinolin-4-one]: the concentration for half-maximal inhibition (IC50) is 0.01 to 100 nM.

The compound `O=c1nc(OCC2COc3ncccc3O2)cc2n1CCc1cc(-c3cn[nH]c3)ccc1-2` (centres unmarked) [compound 180, 2-(2,3-dihydro-[1,4]dioxino[2,3-b]pyridin-2-ylmethoxy)-9-(1H-pyrazol-4-yl)-6,7-dihydro-pyrimido[6,1-a]isoquinolin-4-one] yielded an IC50 of 0.01 to 100 nM.

As to `CC(O)C#Cc1ccc2c(c1)CCn1c-2cc(OCC2COc3ncccc3O2)nc1=O` (centres unmarked) [compound 181, 2-(2,3-dihydro-[1,4]dioxino[2,3-b]pyridin-2-ylmethoxy)-9-(3-hydroxy-but-1-ynyl)-6,7-dihydro-pyrimido[6,1-a]isoquinolin-4-one], the IC50 lay in the range of 0.01 to 100 nM.

In turn, `CCC(O)C#Cc1ccc2c(c1)CCn1c-2cc(OCC2COc3ncccc3O2)nc1=O` (centres unmarked) [compound 182, 2-(2,3-dihydro-[1,4]dioxino[2,3-b]pyridin-2-ylmethoxy)-9-(3-hydroxy-pent-1-ynyl)-6,7-dihydro-pyrimido[6,1-a]isoquinolin-4-one] returned an IC50 of 0.01 to 100 nM.

Compound `CCCC(O)C#Cc1ccc2c(c1)CCn1c-2cc(OCC2COc3ncccc3O2)nc1=O` (centres unmarked) [compound 183, 2-(2,3-dihydro-[1,4]dioxino[2,3-b]pyridin-2-ylmethoxy)-9-(3-hydroxy-hex-1-ynyl)-6,7-dihydro-pyrimido[6,1-a]isoquinolin-4-one] returned a half-maximal inhibitory concentration (IC50) of 0.01 to 100 nM.

Regarding `CC(C)C(O)C#Cc1ccc2c(c1)CCn1c-2cc(OCC2COc3ncccc3O2)nc1=O` (centres unmarked) [compound 188, 2-(2,3-dihydro-[1,4]dioxino[2,3-b]pyridin-2-ylmethoxy)-9-(3-hydroxy-4-methyl-pent-1-ynyl)-6,7-dihydro-pyrimido[6,1-a]isoquinolin-4-one], the half-maximal inhibitory concentration (IC50) was in the range of 0.01 to 100 nM.

`O=c1nc(OC[C@H]2COc3ncccc3O2)cc2n1CCc1cc(OCc3ncco3)ccc1-2` [compound 189] returned an IC50 of 0.01 to 100 nM.

For the compound `O=c1nc(OCC2COc3ncccc3O2)cc2n1CCc1cc(COCCN3CCOCC3)ccc1-2` (centres unmarked) [compound 192, 2-(2,3-dihydro-[1,4]dioxino[2,3-b]pyridin-2-ylmethoxy)-9-(2-morpholin-4-yl-ethoxymethyl)-6,7-dihydro-pyrimido[6,1-a]isoquinolin-4-one], the IC50 lay within 0.01 to 100 nM.

`O=c1nc(OCC2COc3ncccc3O2)cc2n1CCc1cc(C#CCNCc3ccccc3)ccc1-2` (centres unmarked) [compound 193, 9-(3-benzylamino-prop-1-ynyl)-2-(2,3-dihydro-[1,4]dioxino[2,3-b]pyridin-2-ylmethoxy)-6,7-dihydro-pyrimido[6,1-a]isoquinolin-4-one] registered an IC50 of 0.01 to 100 nM.

The compound `O=c1nc(OCC2COc3ncccc3O2)cc2n1CCc1cc(CN3CCCCC3)ccc1-2` (centres unmarked) [compound 199, 2-(2,3-dihydro-[1,4]dioxino[2,3-b]pyridin-2-ylmethoxy)-9-piperidin-1-ylmethyl-6,7-dihydro-pyrimido[6,1-a]isoquinolin-4-one] came in with an IC50 of 0.01 to 100 nM.

In the case of `CC1(COCc2ccc3c(c2)CCn2c-3cc(OCC3COc4ncccc4O3)nc2=O)COC1` (centres unmarked) [compound 200, 2-(2,3-dihydro-[1,4]dioxino[2,3-b]pyridin-2-ylmethoxy)-9-(3-methyl-oxetan-3-ylmethoxymethyl)-6,7-dihydro-pyrimido[6,1-a]isoquinolin-4-one], the IC50 was 0.01 to 100 nM.

Regarding `O=c1nc(OCC2COc3ncccc3O2)cc2n1CCc1cc(COC3COC3)ccc1-2` (centres unmarked) [compound 202, 2-(2,3-dihydro-[1,4]dioxino[2,3-b]pyridin-2-ylmethoxy)-9-(oxetan-3-yloxymethyl)-6,7-dihydro-pyrimido[6,1-a]isoquinolin-4-one], the IC50 fell in the range of 0.01 to 100 nM.

As for `CCCCCCCCCC(=O)[O-].[Na+]` [sodiumdecanoate, reference compound], the “neutrophil chemotaxis induced by GPR84 agonists” value was “induce neutrophil chemotaxis”.
